melting point | SMILES
278 °C | N[C@H](C(=O)N1CC(F)(F)C(F)(F)C1)C1CCCCC1 [Example 3, (S)-2-Amino-2-cyclohexyl-1-(3,3,4,4-tetrafluoro-pyrrolidin-1-yl)-ethanone]
234 to 238 °C | CC(C)[C@H](N)C(=O)N1CC(F)(F)C(F)(F)C1 [Example 5, (S)-2-Amino-3-methyl-1-(3,3,4,4-tetrafluoro-pyrrolidin-1-yl)-butan-1-one]
